Drawing on ChEMBL document CHEMBL5291721, “A preclinical secondary pharmacology resource illuminates target-adverse drug reaction associations of marketed drugs” (Nat Commun, 2023), this text covers AC50 for two compounds.

Assay [1] has as its target T1, Alpha-1A adrenergic receptor (Homo sapiens, UniProt P35348).
T1 sequence (P35348 whole entry): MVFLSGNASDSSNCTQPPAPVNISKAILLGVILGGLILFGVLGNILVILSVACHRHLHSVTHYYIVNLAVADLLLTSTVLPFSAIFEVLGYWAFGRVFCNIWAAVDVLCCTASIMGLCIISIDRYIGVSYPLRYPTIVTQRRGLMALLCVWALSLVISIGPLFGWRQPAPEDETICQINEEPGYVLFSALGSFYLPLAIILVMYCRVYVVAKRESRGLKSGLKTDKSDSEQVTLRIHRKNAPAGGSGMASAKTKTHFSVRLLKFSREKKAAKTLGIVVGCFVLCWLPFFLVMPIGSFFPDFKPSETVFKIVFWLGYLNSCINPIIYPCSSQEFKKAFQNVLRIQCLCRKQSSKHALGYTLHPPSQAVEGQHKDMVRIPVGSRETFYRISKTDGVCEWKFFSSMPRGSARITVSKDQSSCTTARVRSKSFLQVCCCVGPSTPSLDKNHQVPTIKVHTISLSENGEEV
Type of assay: functional, cell-based.

Assay [2] has as its target T2, Amine oxidase [flavin-containing] A (Homo sapiens, UniProt P21397).
T2 sequence (P21397 whole entry): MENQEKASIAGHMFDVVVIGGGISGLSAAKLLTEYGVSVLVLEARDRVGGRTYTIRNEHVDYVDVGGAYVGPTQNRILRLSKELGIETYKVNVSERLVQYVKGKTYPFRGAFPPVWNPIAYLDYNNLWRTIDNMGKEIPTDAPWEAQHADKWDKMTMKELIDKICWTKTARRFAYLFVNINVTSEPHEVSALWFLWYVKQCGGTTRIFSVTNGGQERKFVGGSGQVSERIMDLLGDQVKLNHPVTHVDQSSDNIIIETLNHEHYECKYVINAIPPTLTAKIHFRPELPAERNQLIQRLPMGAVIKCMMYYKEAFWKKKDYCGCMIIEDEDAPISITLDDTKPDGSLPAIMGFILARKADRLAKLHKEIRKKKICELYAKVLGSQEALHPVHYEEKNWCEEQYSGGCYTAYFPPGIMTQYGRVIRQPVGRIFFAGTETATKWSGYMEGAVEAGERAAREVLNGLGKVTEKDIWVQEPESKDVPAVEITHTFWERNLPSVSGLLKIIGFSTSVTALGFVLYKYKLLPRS
Type of assay: functional.

In assay [3] the target is cGMP-inhibited 3',5'-cyclic phosphodiesterase 3A (Homo sapiens, UniProt Q14432). It is filed as functional.
In assay [4] the target is Prostaglandin G/H synthase 1 (Homo sapiens, UniProt P23219). Type of assay: functional.
For assay [5], the target named is Sodium-dependent dopamine transporter (Homo sapiens, UniProt Q01959).
The target of the next assay is Mu-type opioid receptor (Homo sapiens, UniProt P35372).
For another assay, the target named is Histamine H3 receptor (Homo sapiens, UniProt Q9Y5N1).
The next assay has as its target T3, Estrogen receptor (Homo sapiens, UniProt P03372).
T3 sequence (P03372 whole entry): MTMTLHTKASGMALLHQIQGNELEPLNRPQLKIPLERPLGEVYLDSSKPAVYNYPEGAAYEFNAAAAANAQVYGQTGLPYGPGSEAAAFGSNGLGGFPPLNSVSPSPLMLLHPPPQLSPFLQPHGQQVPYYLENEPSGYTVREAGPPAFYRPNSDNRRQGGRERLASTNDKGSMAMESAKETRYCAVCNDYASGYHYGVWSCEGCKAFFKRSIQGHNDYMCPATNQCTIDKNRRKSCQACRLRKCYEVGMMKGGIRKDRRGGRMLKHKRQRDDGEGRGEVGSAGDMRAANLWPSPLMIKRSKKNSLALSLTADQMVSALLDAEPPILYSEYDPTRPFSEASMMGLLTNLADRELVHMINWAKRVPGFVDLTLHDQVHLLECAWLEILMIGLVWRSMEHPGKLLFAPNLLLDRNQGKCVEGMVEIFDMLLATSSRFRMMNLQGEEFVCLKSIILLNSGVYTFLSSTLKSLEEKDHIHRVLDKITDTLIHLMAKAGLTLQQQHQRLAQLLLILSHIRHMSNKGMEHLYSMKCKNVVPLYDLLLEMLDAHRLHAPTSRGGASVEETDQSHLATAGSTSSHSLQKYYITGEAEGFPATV

In general, AC50 refers to the concentration at which the activity in the assay is half-maximal. A low value points to activity at low concentration.
Also: assay procedure not described here.

Chain of Sodium-dependent dopamine transporter (Q01959 whole entry): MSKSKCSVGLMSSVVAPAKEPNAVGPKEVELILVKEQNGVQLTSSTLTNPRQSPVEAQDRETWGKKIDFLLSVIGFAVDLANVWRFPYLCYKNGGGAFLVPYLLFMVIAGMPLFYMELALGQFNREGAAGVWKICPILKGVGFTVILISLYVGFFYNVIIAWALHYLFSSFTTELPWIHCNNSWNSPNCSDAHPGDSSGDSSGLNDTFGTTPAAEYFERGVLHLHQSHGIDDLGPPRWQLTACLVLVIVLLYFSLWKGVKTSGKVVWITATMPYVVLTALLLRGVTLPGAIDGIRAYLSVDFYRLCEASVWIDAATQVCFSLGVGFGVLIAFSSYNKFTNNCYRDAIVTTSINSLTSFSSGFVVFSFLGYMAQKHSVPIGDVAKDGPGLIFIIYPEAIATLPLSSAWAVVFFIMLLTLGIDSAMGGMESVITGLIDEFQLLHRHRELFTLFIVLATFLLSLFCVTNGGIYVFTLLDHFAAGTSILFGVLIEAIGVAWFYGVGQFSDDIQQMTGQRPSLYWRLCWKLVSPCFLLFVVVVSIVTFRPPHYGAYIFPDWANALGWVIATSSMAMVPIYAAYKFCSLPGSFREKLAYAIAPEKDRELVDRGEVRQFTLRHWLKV
Chain of cGMP-inhibited 3',5'-cyclic phosphodiesterase 3A (Q14432 whole entry): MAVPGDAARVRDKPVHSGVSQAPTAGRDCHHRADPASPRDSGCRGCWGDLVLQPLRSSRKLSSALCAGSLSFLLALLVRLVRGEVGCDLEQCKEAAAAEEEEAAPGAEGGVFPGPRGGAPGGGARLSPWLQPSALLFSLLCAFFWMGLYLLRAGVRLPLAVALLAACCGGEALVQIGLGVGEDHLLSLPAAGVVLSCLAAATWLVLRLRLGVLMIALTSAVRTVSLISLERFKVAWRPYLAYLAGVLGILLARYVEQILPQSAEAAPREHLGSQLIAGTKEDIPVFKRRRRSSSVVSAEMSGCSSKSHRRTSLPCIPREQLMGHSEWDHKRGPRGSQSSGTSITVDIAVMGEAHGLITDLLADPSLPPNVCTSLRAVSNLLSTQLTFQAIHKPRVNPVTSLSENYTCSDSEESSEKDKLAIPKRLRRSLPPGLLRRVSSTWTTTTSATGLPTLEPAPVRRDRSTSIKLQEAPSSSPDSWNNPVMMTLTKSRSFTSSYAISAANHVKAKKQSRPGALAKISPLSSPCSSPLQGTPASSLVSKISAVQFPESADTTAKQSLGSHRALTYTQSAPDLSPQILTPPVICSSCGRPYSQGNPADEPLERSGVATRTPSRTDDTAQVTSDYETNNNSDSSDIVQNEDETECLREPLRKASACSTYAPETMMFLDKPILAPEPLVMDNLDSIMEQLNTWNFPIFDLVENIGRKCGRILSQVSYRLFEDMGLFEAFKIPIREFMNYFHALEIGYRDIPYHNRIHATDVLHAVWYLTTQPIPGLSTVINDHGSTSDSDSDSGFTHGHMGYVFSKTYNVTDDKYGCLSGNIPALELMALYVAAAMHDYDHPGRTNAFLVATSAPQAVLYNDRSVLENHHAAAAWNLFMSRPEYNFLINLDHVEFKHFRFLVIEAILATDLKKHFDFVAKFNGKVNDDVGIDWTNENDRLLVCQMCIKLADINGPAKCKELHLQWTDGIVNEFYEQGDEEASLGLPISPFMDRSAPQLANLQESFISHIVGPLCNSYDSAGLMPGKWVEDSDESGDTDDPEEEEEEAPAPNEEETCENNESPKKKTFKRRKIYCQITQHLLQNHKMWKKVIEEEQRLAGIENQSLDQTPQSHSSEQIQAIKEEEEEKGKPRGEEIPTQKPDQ
Chain of Mu-type opioid receptor (P35372 whole entry): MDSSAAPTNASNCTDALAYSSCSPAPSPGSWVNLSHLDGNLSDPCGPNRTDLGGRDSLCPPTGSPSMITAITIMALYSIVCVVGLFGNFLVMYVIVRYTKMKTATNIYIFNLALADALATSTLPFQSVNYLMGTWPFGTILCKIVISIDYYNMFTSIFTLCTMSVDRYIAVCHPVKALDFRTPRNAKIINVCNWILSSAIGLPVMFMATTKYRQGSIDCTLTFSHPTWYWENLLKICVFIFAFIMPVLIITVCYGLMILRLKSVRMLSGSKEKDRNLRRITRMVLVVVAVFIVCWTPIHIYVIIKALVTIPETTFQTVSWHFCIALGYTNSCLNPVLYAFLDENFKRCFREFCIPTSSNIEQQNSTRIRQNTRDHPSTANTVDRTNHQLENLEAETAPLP
Chain of Prostaglandin G/H synthase 1 (P23219 whole entry): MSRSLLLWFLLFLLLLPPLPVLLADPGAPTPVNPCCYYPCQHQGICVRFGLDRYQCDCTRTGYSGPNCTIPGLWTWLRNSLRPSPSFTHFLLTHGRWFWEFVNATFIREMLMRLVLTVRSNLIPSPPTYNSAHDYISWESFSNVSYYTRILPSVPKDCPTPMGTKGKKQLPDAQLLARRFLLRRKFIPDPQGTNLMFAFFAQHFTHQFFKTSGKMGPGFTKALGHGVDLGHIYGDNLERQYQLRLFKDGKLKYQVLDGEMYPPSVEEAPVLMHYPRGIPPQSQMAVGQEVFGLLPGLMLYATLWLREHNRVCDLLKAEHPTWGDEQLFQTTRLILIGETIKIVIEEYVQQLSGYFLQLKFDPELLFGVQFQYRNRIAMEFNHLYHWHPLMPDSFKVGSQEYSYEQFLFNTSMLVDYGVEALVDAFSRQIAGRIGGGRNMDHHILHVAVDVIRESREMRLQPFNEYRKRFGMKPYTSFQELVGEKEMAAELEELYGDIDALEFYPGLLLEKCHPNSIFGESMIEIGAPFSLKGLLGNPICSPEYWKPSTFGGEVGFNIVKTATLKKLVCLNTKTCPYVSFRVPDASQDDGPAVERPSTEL
Chain of Histamine H3 receptor (Q9Y5N1 whole entry): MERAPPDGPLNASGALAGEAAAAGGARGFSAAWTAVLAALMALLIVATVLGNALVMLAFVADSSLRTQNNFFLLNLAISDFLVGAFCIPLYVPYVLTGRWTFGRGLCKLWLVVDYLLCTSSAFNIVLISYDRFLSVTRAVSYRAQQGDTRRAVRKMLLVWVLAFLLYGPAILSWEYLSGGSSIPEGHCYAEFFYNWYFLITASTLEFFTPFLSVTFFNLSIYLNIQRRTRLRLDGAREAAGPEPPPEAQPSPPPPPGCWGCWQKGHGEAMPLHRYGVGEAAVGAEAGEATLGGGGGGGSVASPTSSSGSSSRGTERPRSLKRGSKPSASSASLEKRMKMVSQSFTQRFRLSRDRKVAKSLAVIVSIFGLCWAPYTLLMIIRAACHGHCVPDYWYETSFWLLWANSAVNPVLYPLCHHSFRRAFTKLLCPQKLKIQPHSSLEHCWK

Turning to `CCC(=O)O[C@]1(C(=O)SCF)[C@H](C)C[C@H]2[C@@H]3C[C@H](F)C4=CC(=O)C=C[C@]4(C)[C@@]3(F)[C@@H](O)C[C@@]21C` [FLUTICASONE PROPIONATE], the AC50 (in assay [1]; in assay [2]; in assay [3]; in assay [4]; in assay [5]; at Mu-type opioid receptor) was more than 30 µM each time. For the same compound, at Histamine H3 receptor, the AC50 is more than 30 µM.

Regarding `CN1CCN(C2=Nc3ccccc3Oc3ccc(Cl)cc32)CC1` [LOXAPINE], the AC50 in assay [1] is more than 30 µM; at Estrogen receptor it was more than 30 µM; in assay [2], more than 30 µM; in assay [3] it was more than 30 µM; in assay [4], more than 30 µM; in assay [5], 23.3 µM. Moreover, the values for the AC50 on Mu-type opioid receptor and on Histamine H3 receptor were 13 µM and more than 10 µM, respectively.
